Data: patent publication US8247211B2, “Glycopeptide antibiotics” (American Cyanamid Company, priority 2001, dated 2012)
Values after ≈ are worked out from the molar mass of the structure shown.

Columns and labels:
Assay in all cases: In vitro antibacterial evaluation: minimum inhibitory concentration (MIC), broth dilution method
Assay type in all cases: cell-based
Staphylococcus sp. = conditions: broth dilution, 18 hours at 35° C.; for MIC Staphylococcus aureus-SMITH (GC 4543): strain SMITH GC 4543
Procedure, shortened: (§1)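 NCCLS M7-A2 broth dilution with Mueller-Hinton II, testing 64-0.06 μg/mL antibiotic against 5×10^5 CFU/mL inocula. Test strains include recent methicillin-, penicillin- or vancomycin-resistant clinical isolates. MIC is the lowest concentration preventing growth.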

Enterococcus sp. = conditions: broth dilution, 18 hours at 35° C.
Procedure, shortened: as §1

Streptococcus sp. = conditions: broth dilution, 18 hours at 35° C.
Procedure, shortened: as §1

Escherichia coli = conditions: broth dilution, 18 hours at 35° C.
[1] = Enterococcus faecalis (ATCC 29212)
[2] = Enterococcus faecalis (GC 2242)
[3] = Enterococcus faecalis (GC 2691)
[4] = Enterococcus faecalis (GC 3059)
[5] = Enterococcus faecalis (GC 4552)
[6] = Enterococcus faecalis (GC 4553)
[7] = Enterococcus faecalis (GC 4554)
[8] = Enterococcus faecalis (GC 6189)
[9] = Streptococcus agalactiae (GC 4564)
[10] = Streptococcus pneumoniae (ATCC 6301)
[11] = Streptococcus pneumoniae (GC 1894)
[12] = Streptococcus pneumoniae (GC 4565)
[13] = Streptococcus pyogenes (GC 4563)

CC(c1ccccc1)C1NC(=O)CNC(=O)C(CO)NC(=O)C(CC2CNC(=N)N2C2OC(CO)C(O)C(O)C2O)NC(=O)C(CC2CNC(=N)N2)NC(=O)C(Cc2ccc3oc(-c4ccc5c(c4)Cc4ccccc4-5)nc3c2)NC1=O (stereo not drawn) [Example 42, Cyclo[3-[2-(9H-fluoren-2-yl)-1,3-benzoxazol-5-yl]alanyl-3-(2-iminoimidazolidin-4-yl)alanyl-3-(3-hexopyranosyl-2-iminoimidazolidin-4-yl)alanylserylglycyl-β-methylphenylalanyl]] was tested, and the “MIC Coagulase Negative Staphylococcus (GC 4547)” value (Staphylococcus sp.) was 2 µg/mL (≈ 1.77 µM), the “MIC Coagulase Negative Staphylococcus (GC 4548)” value (Staphylococcus sp.) was 1 µg/mL (≈ 0.886 µM) and the “MIC Coagulase Negative Staphylococcus (GC 4549)” value (Staphylococcus sp.) was 1 µg/mL (≈ 0.886 µM). The “MIC Coagulase Negative Staphylococcus (GC 4551)” value (Staphylococcus sp.) was 4 µg/mL (≈ 3.55 µM), the “MIC Coagulase Negative Staphylococcus (GC 6257)” value (Staphylococcus sp.) was 1 µg/mL (≈ 0.886 µM) and the “MIC Staphylococcus aureus SMITH (GC 4543)” value (Staphylococcus sp.) was 2 µg/mL (≈ 1.77 µM). For the same compound, the “MIC Staphylococcus haemolyticus (GC 4546)” value (Staphylococcus sp.) was 2 µg/mL (≈ 1.77 µM), the “MIC Staphylococcus aureus-SMITH (GC 4543)” value (Staphylococcus sp.) was 2 µg/mL (≈ 1.77 µM) and the “MIC Enterococcus avium (GC 4558)” value (Enterococcus sp.; Enterococcus avium (GC 4558)) was 4 µg/mL (≈ 3.55 µM). The “MIC Enterococcus faecalis (ATCC 29212)” value (Enterococcus sp.; [1]) was 8 µg/mL (≈ 7.09 µM), the “MIC Enterococcus faecalis (GC 2242)” value (Enterococcus sp.; [2]) was 8 µg/mL (≈ 7.09 µM) and the “MIC Enterococcus faecalis (GC 2691)” value (Enterococcus sp.; [3]) was 8 µg/mL (≈ 7.09 µM). For the same compound, the “MIC Enterococcus faecalis (GC 3059)” value (Enterococcus sp.; [4]) was 16 µg/mL (≈ 14.2 µM), the “MIC Enterococcus faecalis (GC 4552)” value (Enterococcus sp.; [5]) was 8 µg/mL (≈ 7.09 µM) and the “MIC Enterococcus faecalis (GC 4553)” value (Enterococcus sp.; [6]) was 8 µg/mL (≈ 7.09 µM). The “MIC Enterococcus faecalis (GC 4554)” value (Enterococcus sp.; [7]) was 8 µg/mL (≈ 7.09 µM), the “MIC Enterococcus faecalis (GC 6189)” value (Enterococcus sp.; [8]) was 8 µg/mL (≈ 7.09 µM) and the “MIC Enterococcus faecium (GC 2243)” value (Enterococcus sp.; Enterococcus faecium (GC 2243)) was 4 µg/mL (≈ 3.55 µM). The “MIC Enterococcus faecium (GC 4556)” value (Enterococcus sp.; Enterococcus faecium (GC 4556)) was 16 µg/mL (≈ 14.2 µM), the “MIC Enterococcus faecium (GC 4557)” value (Enterococcus sp.; Enterococcus faecium (GC 4557)) was 2 µg/mL (≈ 1.77 µM) and the “MIC Enterococcus avium (GC 4558)” value (Enterococcus sp.) was 4 µg/mL (≈ 3.55 µM). The “MIC Enterococcus faecalis (ATCC 29212)” value (Enterococcus sp.) was 8 µg/mL (≈ 7.09 µM), the “MIC Enterococcus faecalis (GC 2242)” value (Enterococcus sp.) was 8 µg/mL (≈ 7.09 µM) and the “MIC Enterococcus faecalis (GC 2691)” value (Enterococcus sp.) was 8 µg/mL (≈ 7.09 µM). For the same compound, the “MIC Enterococcus faecalis (GC 3059)” value (Enterococcus sp.) was 16 µg/mL (≈ 14.2 µM), the “MIC Enterococcus faecalis (GC 4552)” value (Enterococcus sp.) was 8 µg/mL (≈ 7.09 µM) and the “MIC Enterococcus faecalis (GC 4553)” value (Enterococcus sp.) was 8 µg/mL (≈ 7.09 µM). For the same compound, the “MIC Enterococcus faecalis (GC 4554)” value (Enterococcus sp.) was 8 µg/mL (≈ 7.09 µM), the “MIC Enterococcus faecalis (GC 6189)” value (Enterococcus sp.) was 8 µg/mL (≈ 7.09 µM) and the “MIC Enterococcus faecium (GC 2243)” value (Enterococcus sp.) was 4 µg/mL (≈ 3.55 µM). The “MIC Enterococcus faecium (GC 4556)” value (Enterococcus sp.) was 16 µg/mL (≈ 14.2 µM), the “MIC Enterococcus faecium (GC 4557)” value (Enterococcus sp.) was 2 µg/mL (≈ 1.77 µM) and the “MIC Streptococcus agalactiae (GC 4564)” value (Streptococcus sp.; [9]) was 8 µg/mL (≈ 7.09 µM). For the same compound, the “MIC Streptococcus pneumoniae (ATCC 6301)” value (Streptococcus sp.; [10]) was 8 µg/mL (≈ 7.09 µM), the “MIC Streptococcus pneumoniae (GC 1894)” value (Streptococcus sp.; [11]) was 16 µg/mL (≈ 14.2 µM) and the “MIC Streptococcus pneumoniae (GC 4565)” value (Streptococcus sp.; [12]) was 16 µg/mL (≈ 14.2 µM). For the same compound, the “MIC Streptococcus pyogenes (GC 4563)” value (Streptococcus sp.; [13]) was 4 µg/mL (≈ 3.55 µM), the “MIC Streptococcus agalactiae (GC 4564)” value (Streptococcus sp.) was 8 µg/mL (≈ 7.09 µM) and the “MIC Streptococcus pneumoniae (ATCC 6301)” value (Streptococcus sp.) was 8 µg/mL (≈ 7.09 µM). For the same compound, the “MIC Streptococcus pneumoniae (GC 1894)” value (Streptococcus sp.) was 16 µg/mL (≈ 14.2 µM), the “MIC Streptococcus pneumoniae (GC 4565)” value (Streptococcus sp.) was 16 µg/mL (≈ 14.2 µM) and the “MIC Streptococcus pyogenes (GC 4563)” value (Streptococcus sp.) was 4 µg/mL (≈ 3.55 µM). For the same compound, the “MIC Escherichia coli (ATCC 25922)” value (Escherichia coli) was 32 µg/mL (≈ 28.4 µM), the “MIC Escherichia coli (GC 4559)” value (Escherichia coli) was 32 µg/mL (≈ 28.4 µM) and the “MIC Escherichia coli (GC 4560)” value (Escherichia coli) was 1 µg/mL (≈ 0.886 µM).
CC(c1ccccc1)C1NC(=O)CNC(=O)C(CO)NC(=O)C(C(O)C2CNC(=N)N2C2OC(CO)C(O)C(O)C2O)NC(=O)C(C(O)C2CNC(=N)N2)NC(=O)C(Cc2ccc3oc(SCc4ccccc4)nc3c2)NC1=O (stereo not drawn) [Example 45, Cyclo[3-[2-(benzylthio)-1,3-benzoxazol-5-yl]alanyl-3-(2-iminoimidazolidin-4-yl)seryl-3-(3-hexopyranosyl-2-iminoimidazolidin-4-yl)serylserylglycyl-β-methylphenylalanyl]] was tested, and the “MIC Coagulase Negative Staphylococcus (GC 4547)” value (Staphylococcus sp.) was 4 µg/mL (≈ 3.58 µM), the “MIC Coagulase Negative Staphylococcus (GC 4548)” value (Staphylococcus sp.) was 8 µg/mL (≈ 7.15 µM) and the “MIC Coagulase Negative Staphylococcus (GC 4549)” value (Staphylococcus sp.) was 4 µg/mL (≈ 3.58 µM). For the same compound, the “MIC Coagulase Negative Staphylococcus (GC 4551)” value (Staphylococcus sp.) was 8 µg/mL (≈ 7.15 µM), the “MIC Coagulase Negative Staphylococcus (GC 6257)” value (Staphylococcus sp.) was 4 µg/mL (≈ 3.58 µM) and the “MIC Staphylococcus aureus SMITH (GC 4543)” value (Staphylococcus sp.) was 8 µg/mL (≈ 7.15 µM). For the same compound, the “MIC Staphylococcus haemolyticus (GC 4546)” value (Staphylococcus sp.) was 4 µg/mL (≈ 3.58 µM), the “MIC Staphylococcus aureus-SMITH (GC 4543)” value (Staphylococcus sp.) was 8 µg/mL (≈ 7.15 µM) and the “MIC Enterococcus avium (GC 4558)” value (Enterococcus sp.; Enterococcus avium (GC 4558)) was 8 µg/mL (≈ 7.15 µM). For the same compound, the “MIC Enterococcus faecalis (ATCC 29212)” value (Enterococcus sp.; [1]) was 32 µg/mL (≈ 28.6 µM), the “MIC Enterococcus faecalis (GC 2242)” value (Enterococcus sp.; [2]) was 16 µg/mL (≈ 14.3 µM) and the “MIC Enterococcus faecalis (GC 2691)” value (Enterococcus sp.; [3]) was 32 µg/mL (≈ 28.6 µM). The “MIC Enterococcus faecalis (GC 3059)” value (Enterococcus sp.; [4]) was 32 µg/mL (≈ 28.6 µM), the “MIC Enterococcus faecalis (GC 4552)” value (Enterococcus sp.; [5]) was 16 µg/mL (≈ 14.3 µM) and the “MIC Enterococcus faecalis (GC 4553)” value (Enterococcus sp.; [6]) was 16 µg/mL (≈ 14.3 µM). The “MIC Enterococcus faecalis (GC 4554)” value (Enterococcus sp.; [7]) was 16 µg/mL (≈ 14.3 µM), the “MIC Enterococcus faecalis (GC 6189)” value (Enterococcus sp.; [8]) was 16 µg/mL (≈ 14.3 µM) and the “MIC Enterococcus faecium (GC 2243)” value (Enterococcus sp.; Enterococcus faecium (GC 2243)) was 16 µg/mL (≈ 14.3 µM). For the same compound, the “MIC Enterococcus faecium (GC 4556)” value (Enterococcus sp.; Enterococcus faecium (GC 4556)) was 32 µg/mL (≈ 28.6 µM), the “MIC Enterococcus faecium (GC 4557)” value (Enterococcus sp.; Enterococcus faecium (GC 4557)) was 4 µg/mL (≈ 3.58 µM) and the “MIC Enterococcus avium (GC 4558)” value (Enterococcus sp.) was 8 µg/mL (≈ 7.15 µM). For the same compound, the “MIC Enterococcus faecalis (ATCC 29212)” value (Enterococcus sp.) was 32 µg/mL (≈ 28.6 µM), the “MIC Enterococcus faecalis (GC 2242)” value (Enterococcus sp.) was 16 µg/mL (≈ 14.3 µM) and the “MIC Enterococcus faecalis (GC 2691)” value (Enterococcus sp.) was 32 µg/mL (≈ 28.6 µM). The “MIC Enterococcus faecalis (GC 3059)” value (Enterococcus sp.) was 32 µg/mL (≈ 28.6 µM), the “MIC Enterococcus faecalis (GC 4552)” value (Enterococcus sp.) was 16 µg/mL (≈ 14.3 µM) and the “MIC Enterococcus faecalis (GC 4553)” value (Enterococcus sp.) was 16 µg/mL (≈ 14.3 µM). For the same compound, the “MIC Enterococcus faecalis (GC 4554)” value (Enterococcus sp.) was 16 µg/mL (≈ 14.3 µM), the “MIC Enterococcus faecalis (GC 6189)” value (Enterococcus sp.) was 16 µg/mL (≈ 14.3 µM) and the “MIC Enterococcus faecium (GC 2243)” value (Enterococcus sp.) was 16 µg/mL (≈ 14.3 µM). For the same compound, the “MIC Enterococcus faecium (GC 4556)” value (Enterococcus sp.) was 32 µg/mL (≈ 28.6 µM), the “MIC Enterococcus faecium (GC 4557)” value (Enterococcus sp.) was 4 µg/mL (≈ 3.58 µM) and the “MIC Streptococcus agalactiae (GC 4564)” value (Streptococcus sp.; [9]) was 16 µg/mL (≈ 14.3 µM). For the same compound, the “MIC Streptococcus pneumoniae (ATCC 6301)” value (Streptococcus sp.; [10]) was 16 µg/mL (≈ 14.3 µM), the “MIC Streptococcus pneumoniae (GC 1894)” value (Streptococcus sp.; [11]) was 16 µg/mL (≈ 14.3 µM) and the “MIC Streptococcus pneumoniae (GC 4565)” value (Streptococcus sp.; [12]) was 32 µg/mL (≈ 28.6 µM). For the same compound, the “MIC Streptococcus pyogenes (GC 4563)” value (Streptococcus sp.; [13]) was 4 µg/mL (≈ 3.58 µM), the “MIC Streptococcus agalactiae (GC 4564)” value (Streptococcus sp.) was 16 µg/mL (≈ 14.3 µM) and the “MIC Streptococcus pneumoniae (ATCC 6301)” value (Streptococcus sp.) was 16 µg/mL (≈ 14.3 µM). For the same compound, the “MIC Streptococcus pneumoniae (GC 1894)” value (Streptococcus sp.) was 16 µg/mL (≈ 14.3 µM), the “MIC Streptococcus pneumoniae (GC 4565)” value (Streptococcus sp.) was 32 µg/mL (≈ 28.6 µM) and the “MIC Streptococcus pyogenes (GC 4563)” value (Streptococcus sp.) was 4 µg/mL (≈ 3.58 µM). For the same compound, the “MIC Escherichia coli (ATCC 25922)” value (Escherichia coli) was 16 µg/mL (≈ 14.3 µM), the “MIC Escherichia coli (GC 4559)” value (Escherichia coli) was 16 µg/mL (≈ 14.3 µM) and the “MIC Escherichia coli (GC 4560)” value (Escherichia coli) was 4 µg/mL (≈ 3.58 µM).
